The values below come from patent US5451506A, “Oncostatin M and novel compositions having anti-neoplastic activity” (Oncogen Limited Partnership, priority 1993, dated 1995).

Series [1] concerns A375 tumor cells. The experiment in a line: Inhibition of growth of A375 tumors in nude mice. Conditions: for Cumulative Tumor Size: 3 mice. The class given is in vivo. The protocol: A375 tumor cells (2.3×10^6) or an appropriate number of cells of another cell line of interest were injected subcutaneously in the interscapular region of nude mice. When the tumors became palpable, half of the mice were inoculated subcutaneously proximal to the tumor with either (a) 100 μl PBS containing 1.6 μg bovine serum albumin (BSA) or (b) 100 μl PBS containing 1.6 μg BSA plus the test sample. The mice were inoculated in the same manner every 2-3 days until about 19 days after the first inoculation. The diameter and width of each tumor was measured every 2-3 days using calipers.
Six nude mice were injected with A375 cells as described in Example 1D, above. After the tumors became palpable, the mice were injected, proximal to the tumor, with PBS (control) or PBS containing 400 ng Oncostatin M, three mice in each group.
The cumulative sizes (mm^2) of the tumors in each group of three mice were determined every 2-3 days.

Series [2] deals with A375 melanoma cells. The series can be described thus: Soft agar colony inhibition assay (TGI). The class given is cell-based, human. Conditions: 11 days; for # Colonies: untreated 106. As for the experimental part:
A 0.5 ml base layer of 0.5% agar (Agar Noble; Difco Laboratories, Detroit, Mich.) in growth medium was added to 24-well Costar tissue culture plates. One-half ml 0.3% agar in growth medium containing 1 to 2.5×10^3 A375 cells or other cell line of interest at an appropriate cell density, and various concentrations of the factor to be tested were overlaid on the base layer of agar. The plates were incubated at 37° C. in a humidified atmosphere of 5% CO2 in air and refed after 7 days by addition of 0.5 ml of 0.3% agar in growth medium containing the same concentration of the factor to be tested as used previously. Colonies were enumerated unfixed and unstained. The number of colonies with greater than 6 cells were scored.
A375 cells were plated in soft agar, with or without the indicated GIA units of Oncostatin M (see Table 3), as described above in Example 1C. The factor used was from a C18^3 propanol column fraction with peak tumor growth inhibitory activity (GIA). The number of colonies was enumerated at 11 days.

Series [3] concerns bone marrow cells. The experiment in a line: Granulocytic/myelocytic colony formation from bone marrow cells. The class given is cell-based. To be noted: concentrations up to 100 GIA units/ml.

“And” between values parts separate entries of the source, which are not always exact repeats. Equal entries are not always repeated.

Consider “Oncostatin M: Human polypeptide growth regulator produced by activated leukocytes; apparent molecular weight approximately 28 kD by PAGE”, for which, in series [1] (400 ng Oncostatin M vs PBS), the “Tumor size relative to control animals” value is “about half the size of those in control animals”. The “Tumor weight relative to control-treated mice” value in series [1] (400 ng Oncostatin M vs PBS, after 21 days) is “approximately one-third the weight of the tumors from the control-treated mice”. The “Cumulative Tumor Size” value in series [1] (day 0 after treatment, 400 ng, PBS 70) came out at 50 mm^3; in series [1] (day 3 after treatment, 400 ng, PBS 116), 64 mm^3; in series [1] (day 5 after treatment, 400 ng, PBS 130), 66 mm^3; in series [1] (day 7 after treatment, 400 ng, PBS 160), 90 mm^3; in series [1] (day 10 after treatment, 400 ng, PBS 180), 88 mm^3; in series [1] (day 12 after treatment, 400 ng, PBS 210), 100 mm^3. The “Cumulative Tumor Size” value in series [1] (day 14 after treatment, 400 ng, PBS 268) worked out at 116 mm^3; in series [1] (day -1 after treatment, 400 ng s.c. proximal to tumor every 2-3 days, PBS 30), 30 mm^3. The “Tumor Wt” value in series [1] (individual mice (No. 94, 97, 95) after 21 days, PBS mice 540, 440, 480) was 100 mg and 140 mg and 200 mg. Further, the “% Inhibition of Colony Formation” value in series [2] (27 GIA Units/Well) was found to be 89%; in series [2] (45 GIA Units/Well), 69%; in series [2] (83 GIA Units/Well), 94%; in series [2] (250 GIA Units/Well) it was 96%. For the same substance, the “# Colonies” value came out at 11 in series [2] (27 GIA Units/Well), 32 in series [2] (45 GIA Units/Well), 6 in series [2] (83 GIA Units/Well) and 4 in series [2] (250 GIA Units/Well). Besides, in series [3], the Granulocytic/myelocytic colony formation entry is “does not inhibit granulocytic/myelocytic colony formation”.
